In US7429679B2, “Sulphonic acid salt of sibutramine” (CJ Corporation, priority 2005, dated 2008):
Values after ≈ are worked out from the molar mass of the structure shown. “Also recorded” adds a separate entry of the source. Where a name gives a salt, the structure may show the parent alone. Read-outs that look alike come from different tables or passages of the source.

Assays:
Type in all cases: physicochemical
[1] = Evaluation of hygroscopicity: water content (K.F.) after exposure to humid conditions at 25° C.; settings: for change in water content under humid conditions (in words): relative humidities of 10%, 75% and 90%, up to one week or longer
Experimental: The sulphonic acid salts of sibutramine, prepared in Examples 1 to 5, and sibutramine hydrochloride monohydrate were exposed to humid conditions (10%, 75% and 90% RH) at 25° C. for a period of three days or one week. Then, the water content (K.F. water %) of the samples was measured.

[2] = Evaluation of solubility in distilled water and aqueous solutions having various pH values
[3] = Evaluation of stability: stringent 60° C. heat treatment, content by HPLC; set-up: content (HPLC) upon 60° C. heat treatment: reference not given here
Experimental: The sulphonic acid salts of sibutramine, prepared in Examples 1 to 5, and sibutramine hydrochloride monohydrate were exposed to a stringent 60° C. heat treatment.
HPLC was performed under the following conditions.
Wavelength of UV detection: 225 nm
Column: octadecyl silica gel, C18 (4.6×150 mm, 5 μm)
Mobile phase: an aqueous solution of ammonium phosphate monohydride (0.05 M) (adjusted to pH 6 with phosphoric acid): acetonitrile=35:65

[4] = Evaluation of light stability: exposure to fluorescence at 25° C., ICH light stability test chamber, content by HPLC; set-up: content (HPLC) in light stability test: reference not given here
Experimental: A light stability test was performed as follows. The sulphonic acid salts of sibutramine, prepared in Examples 1 to 5, and sibutramine hydrochloride monohydrate were exposed to fluorescence at 25° C. using a light stability test chamber suitable for the ICH guideline, for storage periods of 1, 2 and 4 weeks.

[5] = 10% relative humidity, 25° C., 1 week
[6] = 10% relative humidity, 25° C., 3 days
[7] = 75% relative humidity, 25° C., 1 week
[8] = 75% relative humidity, 25° C., 3 days
[9] = 90% relative humidity, 25° C., 1 week
[10] = 90% relative humidity, 25° C., 3 days
[11] = distilled water (DW) and buffer solutions at various pH values

Structure (SMILES) | water content (K.F. water %) [1, 5] [%] | water content (K.F. water %) [1, 6] [%] | water content (K.F. water %) [1, 7] [%] | water content (K.F. water %) [1, 8] [%] | change in water content under humid conditions (in words) [1] | solubility ([2]; DW (distilled water)) [mg/mL] | solubility compared to sibutramine hydrochloride monohydrate (in words) [2, 11] | solubility ([2]; pH 1.2) [mg/mL] | solubility ([2]; pH 4.0) [mg/mL] | solubility ([2]; pH 5.3) [mg/mL] | solubility ([2]; pH 6.8) [mg/mL] | solubility ([2]; pH 7.4) [mg/mL] | content (HPLC) upon 60° C. heat treatment ([3]; 60° C., 1 wk) | content (HPLC) upon 60° C. heat treatment ([3]; 60° C., 2 wks) | content (HPLC) upon 60° C. heat treatment ([3]; 60° C., 4 wks) | content (HPLC) upon 60° C. heat treatment ([3]; Initial) | content (HPLC) in light stability test ([4]; Initial) | content (HPLC) in light stability test ([4]; fluorescence, 25° C., 1 wk) | content (HPLC) in light stability test ([4]; fluorescence, 25° C., 2 wks) | content (HPLC) in light stability test ([4]; fluorescence, 25° C., 4 wks) | also measured
CC(C)CC(N(C)C)C1(c2ccc(Cl)cc2)CCC1 (stereo not drawn) [Edisylate, sibutramine edisylate] | 0.05 | 0.06 | 0.05 | 0.04 | almost no change in water content | 25.98 (≈ 92.8 mM) | slightly low solubility compared to sibutramine hydrochloride monohydrate; also recorded: slightly lower solubility than sibutramine hydrochloride monohydrate | 10.57 (≈ 37.8 mM) | 9.78 (≈ 34.9 mM) | 5.68 (≈ 20.3 mM) | 19.44 (≈ 69.5 mM) | 8.04 (≈ 28.7 mM) | 0.999 | 1.000 | 0.999 | 1.000 | 1.000 | 1.000 | 0.999 | 1.000 | water content (K.F. water %) [1, 9]: 0.05%; water content (K.F. water %) [1, 10]: 0.04%; water content (K.F. water %) ([1]; Initial): 0.05%
CC(C)CC(N(C)C)C1(c2ccc(Cl)cc2)CCC1.CC1(C)C2CCC1(CS(=O)(=O)O)C(=O)C2 (stereo not drawn) [Camsylate, sibutramine camsylate] | 0.08 | 0.09 | 0.06 | 0.06 | almost no change in water content | 23.67 | – | 16.18 | 16.75 | 7.45 | 29.83 | 13.97 | 1.000 | 0.999 | 0.999 | 1.000 | 1.000 | 0.999 | 1.000 | 0.999 | water content (K.F. water %) [1, 9]: 0.12%; water content (K.F. water %) [1, 10]: 0.08%; water content (K.F. water %) ([1]; Initial): 0.09%
CC(C)CC(N(C)C)C1(c2ccc(Cl)cc2)CCC1 (stereo not drawn) [Besylate, sibutramine besylate] | – | – | – | – | almost no change in water content | 19.18 | slightly lower solubility than sibutramine hydrochloride monohydrate | 15.18 | 8.51 | 5.72 | 21.86 | 7.01 | 1.000 | 0.999 | 1.000 | 1.000 | 1.000 | 1.000 | 0.999 | 0.999 | water content (K.F. water %) ([1]; 10% relative humidity, 25° C., 1 week, listed as Bensylate): 0.02%; water content (K.F. water %) ([1]; 10% relative humidity, 25° C., 3 days, listed as Bensylate): 0.02%; water content (K.F. water %) ([1]; 75% relative humidity, 25° C., 1 week, listed as Bensylate): 0.05%; water content (K.F. water %) ([1]; 75% relative humidity, 25° C., 3 days, listed as Bensylate): 0.02%; water content (K.F. water %) ([1]; 90% relative humidity, 25° C., 1 week, listed as Bensylate): 0.05%; water content (K.F. water %) ([1]; 90% relative humidity, 25° C., 3 days, listed as Bensylate): 0.05%; water content (K.F. water %) ([1]; Initial, listed as Bensylate): 0.02%; solubility ([2]; aqueous buffer, distilled water (DW) and buffer solutions at various pH values, read-out: solubility against the solubility sufficient for preparing pharmaceutical formulations such as capsules): > 3 mg/mL; solubility compared to sibutramine hydrochloride monohydrate (in words) ([2]; distilled water (DW) and buffer solutions at various pH values, listed as besylate): slightly low solubility compared to sibutramine hydrochloride monohydrate
CC(C)CC(N(C)C)C1(c2ccc(Cl)cc2)CCC1 (stereo not drawn) [Tosylate, sibutramine tosylate] | – | – | – | – | almost no change in water content | 24.32 | slightly low solubility compared to sibutramine hydrochloride monohydrate; also recorded: slightly lower solubility than sibutramine hydrochloride monohydrate | 8.36 | 7.56 | 5.53 | 21.92 | 7.69 | 0.999 | 1.000 | 0.999 | 1.000 | 1.000 | 1.000 | 0.999 | 0.999 | water content (K.F. water %) ([1]; 10% relative humidity, 25° C., 1 week, listed as Tosyalte): 0.07%; water content (K.F. water %) ([1]; 10% relative humidity, 25° C., 3 days, listed as Tosyalte): 0.08%; water content (K.F. water %) ([1]; 75% relative humidity, 25° C., 1 week, listed as Tosyalte): 0.08%; water content (K.F. water %) ([1]; 75% relative humidity, 25° C., 3 days, listed as Tosyalte): 0.05%; water content (K.F. water %) ([1]; 90% relative humidity, 25° C., 1 week, listed as Tosyalte): 0.07%; water content (K.F. water %) ([1]; 90% relative humidity, 25° C., 3 days, listed as Tosyalte): 0.05%; water content (K.F. water %) ([1]; Initial, listed as Tosyalte): 0.10%
